Results from patent publication US12077503B2, “Substituted cyclic amides and their use as herbicides” (FMC CORPORATION, priority 2015, dated 2024).

Legend:
Type in all cases: in vivo
[1] = tested on: redroot pigweed (Amaranthus retroflexus); assay: Test G Post-Emergence Protocol; settings: Amaranthus retroflexus, post-emergence, 312 h; for pest or weed control at 15.625 g/ha: 15.625 g ai/ha, evaluated after 13 days (100=total damage to plant; 0=no damage to plant), read-out: Pigweed, Redroot damage rating; for pest or weed control at 62.5 g/ha: 62.5 g ai/ha, read-out: Pigweed, Redroot damage rating (100=total damage to plant; 0=no damage to plant); for pest or weed control at 62.5 g/ha / pest or weed control at 250 g/ha: evaluated after 13 days; for pest or weed control at 250 g/ha: 250 g ai/ha, read-out: damage to plant, Pigweed, Redroot (100=total damage to plant; 0=no damage to plant)
Experimental: (§1) Seeds of corn (Zea mays), giant foxtail (Setaria faberi), barnyardgrass (Echinochloa crus-galli), ivy-leaved morning glory (Ipomoea hederacea), redroot pigweed (Amaranthus retroflexus) and velvetleaf (Abutilon theophrasti) were sown in standard soil in pots. After cultivation for 8 days under controlled conditions in a glasshouse (at 24/16° C., day/night; 14 hours light; 65% humidity), the plants were sprayed with an aqueous spray solution derived from the formulation of the technical active ingredient in acetone/water (50:50) solution containing 0.5% Tween 20 (polyoxyethylene sorbitan monolaurate, CAS RN 9005-64-5) to give a final dose of 15.625, 62.5 or 250 g/ha of test compound.
(§2) The test plants were then grown on under controlled conditions in a glasshouse (at 24/16° C., day/night; 14 hours light; 65% humidity) and watered twice daily. After 13 days the test was evaluated (100=total damage to plant; 0=no damage to plant). A dash (-) means no test result.

[2] = tested on: velvetleaf (Abutilon theophrasti); assay: Test G Post-Emergence Protocol; settings: Abutilon theophrasti, post-emergence, 312 h; for pest or weed control at 15.625 g/ha: 15.625 g ai/ha, evaluated after 13 days (100=total damage to plant; 0=no damage to plant), read-out: Velvetleaf damage rating; for pest or weed control at 62.5 g/ha: 62.5 g ai/ha, read-out: Velvetleaf damage rating (100=total damage to plant; 0=no damage to plant); for pest or weed control at 62.5 g/ha / pest or weed control at 250 g/ha: evaluated after 13 days; for pest or weed control at 250 g/ha: 250 g ai/ha, read-out: damage to plant, Velvetleaf (100=total damage to plant; 0=no damage to plant)
Experimental: as §1, §2

[3] = tested on: giant foxtail (Setaria faberi); assay: Test G Post-Emergence Protocol; settings: Setaria faberi, post-emergence, 312 h; for pest or weed control at 15.625 g/ha: 15.625 g ai/ha, evaluated after 13 days (100=total damage to plant; 0=no damage to plant), read-out: Foxtail, Giant damage rating; for pest or weed control at 62.5 g/ha: 62.5 g ai/ha, read-out: Foxtail, Giant damage rating (100=total damage to plant; 0=no damage to plant); for pest or weed control at 62.5 g/ha / pest or weed control at 250 g/ha: evaluated after 13 days; for pest or weed control at 250 g/ha: 250 g ai/ha, read-out: damage to plant, Foxtail, Giant (100=total damage to plant; 0=no damage to plant)
Experimental: as §1, §2

[4] = tested on: corn (Zea mays); assay: Test G Post-Emergence Protocol; settings: Zea mays, post-emergence, 312 h; for plant injury at 15.625 g/ha: 15.625 g ai/ha, evaluated after 13 days (100=total damage to plant; 0=no damage to plant), read-out: Corn damage rating; for plant injury at 62.5 g/ha: 62.5 g ai/ha, read-out: Corn damage rating (100=total damage to plant; 0=no damage to plant); for plant injury at 62.5 g/ha / plant injury at 250 g/ha: evaluated after 13 days; for plant injury at 250 g/ha: 250 g ai/ha, read-out: damage to plant, Corn (100=total damage to plant; 0=no damage to plant)
Experimental: as §1, §2

[5] = tested on: ivy-leaved morning glory (Ipomoea hederacea); assay: Test G Post-Emergence Protocol; settings: Ipomoea, post-emergence, 312 h; for pest or weed control at 15.625 g/ha: 15.625 g ai/ha, evaluated after 13 days (100=total damage to plant; 0=no damage to plant), read-out: Morningglory, Ivy-leaved damage rating; for pest or weed control at 62.5 g/ha: 62.5 g ai/ha, read-out: Morningglory, Ivy-leaved damage rating (100=total damage to plant; 0=no damage to plant); for pest or weed control at 62.5 g/ha / pest or weed control at 250 g/ha: evaluated after 13 days; for pest or weed control at 250 g/ha: 250 g ai/ha, read-out: damage to plant, Morningglory, Ivy-leaved (100=total damage to plant; 0=no damage to plant)
Experimental: as §1, §2

[6] = tested on: barnyardgrass (Echinochloa crus-galli); assay: Test G Post-Emergence Protocol; settings: Echinochloa crus-galli, post-emergence, 312 h; for pest or weed control at 15.625 g/ha: 15.625 g ai/ha, evaluated after 13 days (100=total damage to plant; 0=no damage to plant), read-out: Barnyardgrass damage rating; for pest or weed control at 62.5 g/ha: 62.5 g ai/ha, read-out: Barnyardgrass damage rating (100=total damage to plant; 0=no damage to plant); for pest or weed control at 62.5 g/ha / pest or weed control at 250 g/ha: evaluated after 13 days; for pest or weed control at 250 g/ha: 250 g ai/ha, read-out: damage to plant, Barnyardgrass (100=total damage to plant; 0=no damage to plant)
Experimental: as §1, §2

[7] = tested on: redroot pigweed (Amaranthus retroflexus); assay: Test G Pre-Emergence Protocol; settings: Amaranthus retroflexus, pre-emergence, 312 h, evaluated after 13 days; for pest or weed control at 15.625 g/ha: 15.625 g ai/ha; for pest or weed control at 15.625 g/ha / pest or weed control at 250 g/ha: read-out: Pigweed, Redroot damage rating (100=total damage to plant; 0=no damage to plant); for pest or weed control at 62.5 g/ha: 62.5 g ai/ha, 100=total damage to plant, 0=no damage to plant, read-out: plant damage rating, Pigweed, Redroot; for pest or weed control at 250 g/ha: 250 g ai/ha
Experimental: as §1, with “one day” for “8 days”
as §2

[8] = tested on: velvetleaf (Abutilon theophrasti); assay: Test G Pre-Emergence Protocol; settings: Abutilon theophrasti, pre-emergence, 312 h, evaluated after 13 days; for pest or weed control at 15.625 g/ha: 15.625 g ai/ha; for pest or weed control at 15.625 g/ha / pest or weed control at 250 g/ha: read-out: Velvetleaf damage rating (100=total damage to plant; 0=no damage to plant); for pest or weed control at 62.5 g/ha: 62.5 g ai/ha, 100=total damage to plant, 0=no damage to plant, read-out: plant damage rating, Velvetleaf; for pest or weed control at 250 g/ha: 250 g ai/ha
Experimental: as §1, with “one day” for “8 days”
as §2

[9] = tested on: giant foxtail (Setaria faberi); assay: Test G Pre-Emergence Protocol; settings: Setaria faberi, pre-emergence, 312 h, evaluated after 13 days; for pest or weed control at 15.625 g/ha: 15.625 g ai/ha; for pest or weed control at 15.625 g/ha / pest or weed control at 250 g/ha: read-out: Foxtail, Giant damage rating (100=total damage to plant; 0=no damage to plant); for pest or weed control at 62.5 g/ha: 62.5 g ai/ha, 100=total damage to plant, 0=no damage to plant, read-out: plant damage rating, Foxtail, Giant; for pest or weed control at 250 g/ha: 250 g ai/ha
Experimental: as §1, with “one day” for “8 days”
as §2

[10] = tested on: corn (Zea mays); assay: Test G Pre-Emergence Protocol; settings: Zea mays, pre-emergence, 312 h, evaluated after 13 days; for plant injury at 15.625 g/ha: 15.625 g ai/ha; for plant injury at 15.625 g/ha / plant injury at 250 g/ha: read-out: Corn damage rating (100=total damage to plant; 0=no damage to plant); for plant injury at 62.5 g/ha: 62.5 g ai/ha, 100=total damage to plant, 0=no damage to plant, read-out: plant damage rating, Corn; for plant injury at 250 g/ha: 250 g ai/ha
Experimental: as §1, with “one day” for “8 days”
as §2

[11] = tested on: ivy-leaved morning glory (Ipomoea hederacea); assay: Test G Pre-Emergence Protocol; settings: Ipomoea, pre-emergence, 312 h, evaluated after 13 days; for pest or weed control at 15.625 g/ha: 15.625 g ai/ha, read-out: Morning-glory, Ivy-leaved damage rating (100=total damage to plant; 0=no damage to plant); for pest or weed control at 62.5 g/ha: 62.5 g ai/ha, 100=total damage to plant, 0=no damage to plant, read-out: plant damage rating, Morningglory, Ivy-leaved; for pest or weed control at 250 g/ha: 250 g ai/ha, read-out: Morningglory, Ivy-leaved damage rating (100=total damage to plant; 0=no damage to plant)
Experimental: as §1, with “one day” for “8 days”
as §2

[12] = tested on: barnyardgrass (Echinochloa crus-galli); assay: Test G Pre-Emergence Protocol; settings: Echinochloa crus-galli, pre-emergence, 312 h, evaluated after 13 days; for pest or weed control at 15.625 g/ha: 15.625 g ai/ha, read-out: Barnyard grass damage rating (100=total damage to plant; 0=no damage to plant); for pest or weed control at 62.5 g/ha: 62.5 g ai/ha, 100=total damage to plant, 0=no damage to plant, read-out: plant damage rating, Barnyardgrass; for pest or weed control at 250 g/ha: 250 g ai/ha, read-out: Barnyardgrass damage rating (100=total damage to plant; 0=no damage to plant)
Experimental: as §1, with “one day” for “8 days”
as §2

Row | Compound | pest or weed control at 15.625 g/ha [1] [%] | pest or weed control at 62.5 g/ha [1] [%] | pest or weed control at 250 g/ha [1] [%] | pest or weed control at 15.625 g/ha [2] [%] | pest or weed control at 62.5 g/ha [2] [%] | pest or weed control at 250 g/ha [2] [%] | pest or weed control at 15.625 g/ha [3] [%] | pest or weed control at 62.5 g/ha [3] [%] | pest or weed control at 250 g/ha [3] [%] | plant injury at 15.625 g/ha [4] [%] | plant injury at 62.5 g/ha [4] [%] | plant injury at 250 g/ha [4] [%] | pest or weed control at 15.625 g/ha [5] [%] | pest or weed control at 62.5 g/ha [5] [%] | pest or weed control at 250 g/ha [5] [%] | pest or weed control at 15.625 g/ha [6] [%] | pest or weed control at 62.5 g/ha [6] [%] | pest or weed control at 250 g/ha [6] [%] | pest or weed control at 15.625 g/ha [7] [%] | pest or weed control at 62.5 g/ha [7] [%] | further results
1 | CN1C[C@@H](c2ccc(C(F)(F)F)cc2)[C@@](O)(C(=O)Nc2cccc(F)c2F)C1=O (racemic) [Compound 1403] | 10 | 10 | 10 | 0 | 0 | 0 | 0 | 0 | 0 | 10 | 10 | 20 | 0 | 0 | 0 | 0 | 0 | 10 | 0 | 0 | pest or weed control at 250 g/ha [7]: 0%; pest or weed control at 15.625 g/ha [8]: 0%; pest or weed control at 62.5 g/ha [8]: 0%; pest or weed control at 250 g/ha [8]: 0%; pest or weed control at 15.625 g/ha [9]: 0%; pest or weed control at 62.5 g/ha [9]: 0%; pest or weed control at 250 g/ha [9]: 0%; plant injury at 15.625 g/ha [10]: 0%; plant injury at 62.5 g/ha [10]: 0%; plant injury at 250 g/ha [10]: 0%; pest or weed control at 15.625 g/ha [11]: 0%; pest or weed control at 62.5 g/ha [11]: 0%; pest or weed control at 250 g/ha [11]: 0%; pest or weed control at 15.625 g/ha [12]: 0%; pest or weed control at 62.5 g/ha [12]: 0%; pest or weed control at 250 g/ha [12]: 0%
2 | Cc1ccc([C@H]2CN(C)C(=O)[C@@H]2C(=O)Nc2ccccc2F)cc1Cl (racemic) [Compound 1420] | 0 | 0 | 20 | 0 | 0 | 10 | 50 | 60 | 60 | 10 | 40 | 60 | 0 | 10 | 0 | 10 | 40 | 40 | 0 | 0 | pest or weed control at 250 g/ha [7]: 0%; pest or weed control at 15.625 g/ha [8]: 0%; pest or weed control at 62.5 g/ha [8]: 0%; pest or weed control at 250 g/ha [8]: 0%; pest or weed control at 15.625 g/ha [9]: 70%; pest or weed control at 62.5 g/ha [9]: 80%; pest or weed control at 250 g/ha [9]: 80%; plant injury at 15.625 g/ha [10]: 0%; plant injury at 62.5 g/ha [10]: 50%; plant injury at 250 g/ha [10]: 70%; pest or weed control at 15.625 g/ha [11]: 0%; pest or weed control at 62.5 g/ha [11]: 0%; pest or weed control at 250 g/ha [11]: 0%; pest or weed control at 15.625 g/ha [12]: 60%; pest or weed control at 62.5 g/ha [12]: 70%; pest or weed control at 250 g/ha [12]: 80%
